Like-named read-outs stand apart in the source and are kept apart here.
Assays:
[1] = system: Staphylococcus epidermidis ATCC 12228; test: Carrier test: H2O2 solutions treated with 400 to 420 nm light for 1 minute, applied to bacterial carriers after a dwell time; type: cell-based
Protocol: The solutions were applied to the targets after the dwell times of 1 minute, 5 minutes, 10 minutes, 30 minutes, 1 hour, 12 hours, 24 hours, 2, days, 5 days, and 7 days. After 7 days of dwell time, all solutions were treated with light again for 1 minute, and a target was treated after 1 minute of dwell time.

[2] = system: microbes
[3] = system: Desulfoviberio vulgaris Hildenborough (DvH); conditions: combined with radiation of 300 nm to 500 nm; in the presence of DvH, not replicated in sterile environment
Protocol: In Example 1, carbon steel coupons were incubated in the presence of oxygen and, as the oxidizing agent compound, hydrogen peroxide, combined with radiation of certain wavelengths of 300 nm to 500 nm in a synergistic reaction, with and without an inoculum of DvH. The metal loss of the carbon steel coupons was measured.

[4] = system: DvH
Protocol: In example 2, steel coupons were incubated in cultures of DvH for three days with and without exposure to an oxidizing agent compound, specifically hydrogen peroxide, combined with radiation of certain wavelengths 300-500 nm in a synergistic reaction and then the coupons were measured to determine the amount of metal loss due to corrosion.

[5] = 7 days*: reactivation with light of 400 to 420 nm for 1 minute, 1 minute dwell, control 9.80E+04
[6] = 7 days*: reactivation with light of 400 to 420 nm for 1 minute, applied after 1 minute dwell time
[7] = applied 1 min after solution exposed to light (400 to 420 nm, 1 minute)
[8] = applied 1 min after solution exposed to light, control 6.04E+05 CFU per carrier
[9] = applied 5 min after solution exposed to light
[10] = applied 5 min after solution exposed to light, control 6.04E+05
[11] = applied 10 min after solution exposed to light
[12] = applied 10 min after solution exposed to light, control 6.04E+05
[13] = applied 30 min after solution exposed to light
[14] = applied 30 min after solution exposed to light, control 6.04E+05
[15] = applied 1 hr after solution exposed to light
[16] = applied 1 hr after solution exposed to light, control 6.04E+05
[17] = applied 12 hr after solution exposed to light
[18] = applied 12 hr after solution exposed to light, control 9.20E+04
[19] = applied 24 hr after solution exposed to light
[20] = applied 24 hr after solution exposed to light, control 1.33E+05
[21] = applied 2 days after solution exposed to light
[22] = applied 2 days after solution exposed to light, control 3.00E+05
[23] = applied 5 days after solution exposed to light
[24] = applied 5 days after solution exposed to light, control 4.50E+04
[25] = applied 7 days after solution exposed to light
[26] = applied 7 days after solution exposed to light, control 9.80E+04

Row | Compound | % Reduction vs. Control [1, 5] | CFU per carrier [1, 6] | CFU per carrier [1, 7] | % Reduction vs. Control [1, 8] | CFU per carrier [1, 9] | % Reduction vs. Control [1, 10] | CFU per carrier [1, 11] | % Reduction vs. Control [1, 12] | CFU per carrier [1, 13] | % Reduction vs. Control [1, 14] | CFU per carrier [1, 15] | % Reduction vs. Control [1, 16] | CFU per carrier [1, 17] | % Reduction vs. Control [1, 18] | CFU per carrier [1, 19] | % Reduction vs. Control [1, 20] | CFU per carrier [1, 21] | % Reduction vs. Control [1, 22] | CFU per carrier [1, 23] | % Reduction vs. Control [1, 24] | further results
1 | OO [0.3% H2O2, hydrogen peroxide] | nr | 1.03E+05 CFU per carrier | 1.10E+04 CFU per carrier | 98.18% | 3.00E+04 CFU per carrier | 95.04% | 1.98E+05 CFU per carrier | 67.24% | 7.00E+04 CFU per carrier | 88.42% | 7.00E+04 CFU per carrier | 88.42% | 1.27E+05 CFU per carrier | nr | 1.40E+04 CFU per carrier | 89.47% | 2.64E+05 CFU per carrier | 12.00% | 4.40E+04 CFU per carrier | 2.22% | CFU per carrier [1, 25]: 7.70E+04 CFU per carrier; % Reduction vs. Control [1, 26]: 21.43%
2 | OO [3% H2O2, hydrogen peroxide] | 89.80% | 1.00E+04 CFU per carrier | 7.00E+04 CFU per carrier | 88.42% | 7.00E+04 CFU per carrier | 88.42% | 3.10E+04 CFU per carrier | 94.87% | 2.80E+04 CFU per carrier | 95.37% | 7.10E+04 CFU per carrier | 88.25% | 1.80E+04 CFU per carrier | 80.43% | 2.10E+04 CFU per carrier | 84.21% | 9.00E+04 CFU per carrier | 70.00% | 3.29E+03 CFU per carrier | 92.69% | CFU per carrier [1, 25]: 1.50E+04 CFU per carrier; % Reduction vs. Control [1, 26]: 84.69%; microbes eliminated ([2]; 3% hydrogen peroxide together with radiation of 300 to 600 nanometers): 99.9999%; microbes eliminated ([2]; 3% solution alone, no radiation): approximately 30%
3 | OO [hydrogen peroxide] | – | – | – | – | – | – | – | – | – | – | – | – | – | – | – | – | – | – | – | – | effect on corrosion (weight loss) of carbon steel coupons [3]: reduce and/or eliminate corrosion in the presence of DvH; metal loss of coupons without treatment relative to coupons with treatment ([4]; 100 ppm (0.01%) hydrogen peroxide combined with radiation 300-500 nm, three days in DvH cultures): ~2 fold; corrosion of metal coupons ([4]; in the presence of hydrogen peroxide combined with radiation 300-500 nm, DvH cultures, three days): little to no corrosion

From patent US11033648B2, “Method, system and device for reducing microbial concentration and/or biofilm formation and/or reducing mineral and chemical concentrations to purify contaminated surfaces and substances” (EMODs Technology, L.L.C., priority 2019, dated 2021)
